Read-outs that look alike come from different tables or passages of the source.
Key:
CCRF-CEM = experiment: Cytotoxic activity against mammalian cells in tissue culture (MTT); format: cell-based, human
Method: (§1) For examinations were used selected cell lines: CCRF-CEM—human acute lymphoblastic leukemia; HepG2—human malignant hepatoma; LLC-PK1—epithelial cell of pig kidney; All lines were from ATCC collection.
(§2) The study are conducted using described below methods of culturing and determination of cytotoxic activity.
(§3) CCRF-CEM cells were cultured in medium RPMI 1640+10% fetal bovine serum (FBS), LLC-PK1 cells in medium Medium 199+3% FBS, HepG2 cells in medium MEM+10% FBS. All media contained 100 μg/ml of penicillin G and streptomycin. 24-wells microplates containing appropriate medium were inoculated with the cells in amount of 1.2×10^4 cells/well and allowed to stand overnight. Next, tested compounds as solution in dimethylsulfoxide (DMSO) were added in volume of 10 μl (serial 2× dilutions). To control well 10 μl of DMSO was added. Microplates with cell suspensions were incubated for 120 h at temperature 37° C. at atmosphere of 95%/5% CO2. After incubation, to all wells 200 μl of solution of 3-(4,5-dimethylthiazole-2-yl)-2,5-diphenylotetrazole bromide (MTT) in PBS (4 mg/ml) was added and plates were further incubated for 4 h at 37° C. Next, to dissolve crystals of formazane 1 ml of DMSO was added and absorption of solutions was measured at the wavelength λ=540 nm (A540), using a microplates reader (Victor^3, Perkin-Wallac). […] From these graphs IC50 values were read, that is concentration of tested compound in the presence at which A540 value is half of A540 value measured in the control sample.

HepG2 = experiment: as above; format: cell-based, human
Method: as §1, §2, §3

[1] = system: Candida albicans ATCC 10231; experiment: Antifungal activity in vitro, serial dilution in RPMI 1640; format: cell-based; conditions: Table 2A, RPMI 1640, pH 7.0; for Antifungal activity Candida albicans ATCC 10231 IC50: A531 50% of control; for Antifungal activity Candida albicans ATCC 10231 MIC: A531 at most 20% of control
Method: (§4) For the determination of antifungal activity in vitro we used method of serial dilution in buffered medium RPMI 1640, pH 7.0, in a 96-wells microplates, according to the standard procedure (National Committee for Clinical Laboratory Standards. Reference method for broth dilution antifungal susceptibility testing of yeast, approved standard, 2nd ed. M27-A2 vol. 22 Wayne, Pa., 2002). The optical density of cells suspension was measured using a microplates reader (Victor^3, Perkin-Elmer) at the wavelength λ=531 nm (A531). On the basis of obtained results the diagrams of relation between A531 values and concentration of examined compound were made. From these graphs, the IC50 values were read, which were the interpolated concentrations of a tested compound, at which the A531 value was exactly 50% of the A531 value for the control sample. Moreover, MIC values, that are the lowest concentration of tested compound at which the A531 value were at most 20% of the A531 value measured for the control sample.

Candida krusei DSM 6128 = experiment: as above; format: cell-based; conditions: Table 2A; RPMI 1640, pH 7.0
Method: as §4

[2] = system: Candida tropicalis KKP 334; experiment: as above; format: cell-based; conditions: Table 2A; RPMI 1640, pH 7.0
Method: as §4

[3] = system: Saccharomyces cerevisiae ATCC 9763; experiment: as above; format: cell-based; conditions: Table 2A; RPMI 1640, pH 7.0; A531 at most 20% of control
Method: as §4

[4] = system: Candida glabrata DSM 11226; experiment: as above; format: cell-based; conditions: Table 2A; RPMI 1640, pH 7.0
Method: as §4

LLC-PK1 = experiment: Cytotoxic activity against mammalian cells in tissue culture (MTT); format: cell-based, pig
Method: as §1, §2, §3

Human erythrocytes = experiment: Hemotoxicity (hemolytic activity); conditions: for Hemotoxicity BEH50: 37° C., 30 minutes, concentration causing 50% hemolysis, maximum concentration 300 μg/ml
Method: The hemotoxicity determination were carried out by the serial dilutions method, according to the procedure described earlier (Ślisz, M., et al., E., J Antibiot 57: 669-678 (2004)). Human erythrocytes were suspensed in the solution of saline to obtain a cell density of suspension 2×10^7/ml. Suitable amounts of diluted solutions of compounds were added to the cell suspension in tubes and were incubated at 37° C. for 30 minutes and then centrifuged (1700×g, 10 min, 4° C.). The concentration of hemoglobin in supernatant after centrifugation of erythrocytes suspension were determined by measuring the absorbance at wavelength λ=540 nm (A540). The maximum level of hemolysis was obtained after incubation of cells suspension in the presence of 0.1% Tritone X-100 (control sample). […] From these graphs, the EH50 values were read which are the interpolated concentrations of compound, for which the A540 value is exactly 50% of the A540 value measured for the control sample.

[5] = system: Candida lusitaniae DSM 70102; experiment: Antifungal activity in vitro, serial dilution in RPMI 1640; format: cell-based; conditions: Table 2A; RPMI 1640, pH 7.0
Method: as §4

[6] = human erythrocytes, concentration causing 10% of hemolysis

Row | Compound | Cytotoxicity IC50 CCRF-CEM (CCRF-CEM) [µg/mL] | Cytotoxicity IC50 HepG2 (HepG2) [µg/mL] | Antifungal activity Candida albicans ATCC 10231 IC50 [1] [µg/mL] | Antifungal activity Candida albicans ATCC 10231 MIC [1] [µg/mL] | Antifungal activity Candida krusei DSM 6128 MIC (Candida krusei DSM 6128) [µg/mL] | Antifungal activity Candida tropicalis KKP 334 MIC [2] [µg/mL] | Antifungal activity Saccharomyces cerevisiae ATCC 9763 MIC [3] [µg/mL] | Antifungal activity Candida glabrata DSM 11226 MIC [4] [µg/mL] | Cytotoxicity IC50 LLC-PK1 (LLC-PK1) [µg/mL] | Hemotoxicity BEH50 (Human erythrocytes; human erythrocytes) [µg/mL] | EH10 (Human erythrocytes; [6]) [µg/mL] | Cytotoxicity IC50 CCRF-CEM (CCRF-CEM; CCRF-CEM, 120 h, MTT) [µg/mL] | Cytotoxicity IC50 HepG2 (HepG2; HepG2, 120 h, MTT) [µg/mL] | Cytotoxicity IC50 LLC-PK1 (LLC-PK1; LLC-PK1, 120 h, MTT) [µg/mL] | % of hemolysis at the concentration 60 μg ml^−1 (Human erythrocytes) [%] | Antifungal activity Candida lusitaniae DSM 70102 MIC [5] [µg/mL] | EH10 (Human erythrocytes) [µg/mL] | % of hemolysis at the concentration 60 μg ml^−1 (Human erythrocytes; human erythrocytes, 60 μg ml^−1) [%]
1 | CC1OC(O[C@H]2/C=C/C=C/C=C/C=C/CC/C=C/C=C/[C@H](C)[C@@H](O)[C@@H](C)[C@H](C)OC(=O)C[C@H](O)C[C@H](O)C[C@H](O)CC[C@@H](O)[C@H](O)CC3(O)C[C@H](O)[C@@H](C(=O)O)[C@H](C2)O3)C(O)C(NC(=O)[C@H](N)Cc2cccc3ccccc23)C1O (stereo partly drawn) [Compound N39] | >100 | >100 | 6.05 | 8 | 16 | 8 | 8 | 16 | >100 | – | – | – | – | – | – | – | – | –
2 | CC1OC(O[C@H]2/C=C/C=C/C=C/C=C/CC/C=C/C=C/[C@H](C)[C@@H](O)[C@@H](C)[C@H](C)OC(=O)C[C@H](O)C[C@H](O)C[C@H](O)CC[C@@H](O)[C@H](O)CC3(O)C[C@H](O)[C@@H](C(=O)O)[C@H](C2)O3)C(O)C(NCc2ccccc2)C1O (stereo partly drawn) [Compound N21, N-benzylnystatin A1] | – | – | 2.32 | 4 | 4 | 4 | 2 | 4 | – | 188.56 | 91.60 | 91.9 ± 4.35 | 68.3 ± 8.06 | >100 | – | – | – | –
3 | N-[3-(piperidin-1-yl)propionyl]nystatin A1 [Compound N44] | – | – | 2.95 | 4 | 8 | 4 | 4 | 8 | – | – | 209.39 | >100 | >100 | >100 | 0.95 | – | – | –
4 | CC1OC(O[C@H]2/C=C/C=C/C=C/C=C/CC/C=C/C=C/[C@H](C)[C@@H](O)[C@@H](C)[C@H](C)OC(=O)C[C@H](O)C[C@H](O)C[C@H](O)CC[C@@H](O)[C@H](O)CC3(O)C[C@H](O)[C@@H](C(=O)O)[C@H](C2)O3)C(O)C(NC2CC(=O)N(CCN3CCCCC3)C2=O)C1O (stereo partly drawn) [Compound N8, N—[N′-2-(piperidin-1-yl)ethylsuccinimidyl]nystatin A1] | – | – | 1.54 | 2 | 4 | 2 | 2 | 4 | – | – | 150.73 | – | – | – | – | 2 | – | –
5 | CCN(CC1(O)OCC(O)C(O)C1O)C1C(O)C(C)OC(OC2C=CC=CC=CC=CCCC=CC=CC(C)C(O)C(C)C(C)OC(=O)CC(O)CC(O)CC(O)CCC(O)C(O)CC3(O)CC(O)C(C(=O)O)C(C2)O3)C1O (stereo not drawn) [Compound N29, N-fructosyl-N-ethylnystatin A1] | – | – | 3.56 | 8 | 16 | 8 | 8 | 16 | – | – | – | – | – | – | – | 8 | – | –
6 | CC1OC(O[C@H]2/C=C/C=C/C=C/C=C/CC/C=C/C=C/[C@H](C)[C@@H](O)[C@@H](C)[C@H](C)OC(=O)C[C@H](O)C[C@H](O)C[C@H](O)CC[C@@H](O)[C@H](O)CC3(O)C[C@H](O)[C@@H](C(=O)O)[C@H](C2)O3)C(O)C(NC2CC(=O)N(CCN(C)C)C2=O)C1O (stereo partly drawn) [Compound N7, N—[N′-2-(N″,N″-dimethylamino)ethylsuccinimidyl]nystatin A1] | – | – | 3.99 | 8 | 16 | 8 | 8 | 8 | – | – | – | – | – | – | – | 4 | – | –
7 | C[C@@H]1[C@H](O)[C@@H](C)/C=C/C=C/CC/C=C/C=C/C=C/C=C/[C@H](O[C@@H]2O[C@H](C)[C@@H](O)[C@H](N(C)C)[C@@H]2O)C[C@@H]2O[C@](O)(C[C@@H](O)C[C@@H](O)[C@H](O)CC[C@@H](O)C[C@@H](O)CC(=O)O[C@H]1C)C[C@H](O)[C@H]2C(=O)O [Compound N23, N,N-dimethylnystatin A1] | – | – | 2.47 | 4 | 8 | 4 | 4 | 8 | – | – | – | – | – | – | – | 2 | 214.20 | –
8 | N-{3-[2-(morpholin-1-yl)ethyl]thioureidyl}nystatin A1 [Compound N13] | – | – | 3.88 | 8 | 16 | 8 | 8 | 16 | – | – | – | – | – | – | – | 8 | – | –
9 | CC1OC(O[C@H]2/C=C/C=C/C=C/C=C/CC/C=C/C=C/[C@H](C)[C@@H](O)[C@@H](C)[C@H](C)OC(=O)C[C@H](O)C[C@H](O)C[C@H](O)CC[C@@H](O)[C@H](O)CC3(O)C[C@H](O)[C@@H](C(=O)O)[C@H](C2)O3)C(O)C(NC(=O)[C@@H](N)Cc2ccccc2)C1O (stereo partly drawn) [Compound N34, N-L-phenylalanylnystatin A1] | – | – | 6.01 | 8 | 8 | 8 | 4 | 8 | – | >300 | – | >100 | >100 | – | – | – | – | 0.02
